Patent US11464953B2, “Water-soluble microneedle spicules and non-aqueous cosmetic composition containing the same” (PAEAN AESTHETICS INC., priority 2015, dated 2022)

Assay: HPLC stability test of vitamin C in non-aqueous cosmetics
Type: physicochemical
Settings: maintained for 24 months
Method: To confirm the stability of vitamin C (ascorbic acid) contained in non-aqueous cosmetics, the content of the reduced form of ascorbic acid was measured by HPLC for 24 months. The non-aqueous cosmetics in an amount of 0.1 g was collected and distilled water was added to a final volume of 1 mL, and vehemently mixed. Then, the water-soluble ascorbic acid was eluted and the aqueous solution containing ascorbic acid was diluted and used for analysis. The column used was the C18 (4.6×150 mm) and 0.025 M phosphoric acid (pH 2.5) was used for the mobile phase. After adding 10 mM DTT to a 100-fold diluted sample for analysis, the amounts of the reduced form in the sample in which ascorbic acid was all converted to a reduced form and the sample in which 10 mM DTT was not added were compared and thereby the amounts of the ascorbic acid in the reduced form contained in the cosmetics were confirmed. The samples were prepared for 0, 3, 6, 9, 12, 18, and 24 months and analyzed by HPLC. […] The amounts of ascorbic acid in the reduced form was calculated as follows. [table]

content of ascorbic acid in the reduced form (Initial AA/Total AA × 100): ≥ 96%
Compound: O=C1O[C@H]([C@@H](O)CO)C(O)=C1O [ascorbic acid]
